US9714245B2, “Carboline compounds usable in the treatment of neurodegenerative diseases” (ALZPROTECT, priority 2013, dated 2017)

What was measured:
secreted Aβ1-42 = test: Aβ1-42 secretion by APP-transfected neuroblastoma cells (ELISA); format: cell-based; settings: Homo sapiens, Neuroblastoma cell; SKNSH-SYSY APPWT cells; concentration decreasing secreted Aβ1-42 to 50% of basal amount
Protocol: (§1) Cell Cultures and Transfections to Test Activity on Aβ1-40 and Aβ1-42 Secretion
(§2) Human neuroblastoma cell line SKNSH-SYSY (ATCC® Catalog No. CRL-2266™), HEK (ATCC® CRL-1573™) and COS-1 (ATCC® CRL-1650™) cells were maintained in Dulbecco's modified Eagle medium (DMEM, GIBCO BRL) supplemented with 10% fetal calf serum, 2 mM L-glutamine, 1 mM non-essential amino acids, 50 units/ml penicillin/streptomycin (Invitrogen, France) in a 5% CO2 humidified incubator at 37° C. APP695 cDNA was subcloned into eukaryotic expression vector pcDNA3 (Invitrogen), allowing for a G418 (Invitrogen) selection of clones. This APP cDNA coding for the 695 amino acid long isoform was transfected into SKNSH-SYSY cells using the ethyleneimine polymer ExGen 500 (Euromedex) according to the manufacturer's instructions. The cells expressing APP (SKNSH-SYSY APP^WT) were selected by the addition of 200 μg/ml G418 in the cell medium. To quantify AR which released in the cell culture medium, the collected medium was spun at 200×g to eliminate the cell debris. The concentrations of secreted Aâ1-40 and Aβ1-42 were determined using the Human Aβ (1-40) Assay Kit (IBL) or the INNOTEST™ beta-Amyloid (1-42) ELISA Kit (Innogenetics), according to manufacturer's instructions. The results were expressed as IC50, i.e. the concentration able to decrease to 50% the basal amount of secreted Aβ peptide 1-40 and 1-42.

secreted Aβ1-40 = test: Aβ1-40 secretion by APP-transfected neuroblastoma cells (ELISA); format: cell-based; settings: Homo sapiens, Neuroblastoma cell; SKNSH-SYSY APPWT cells; concentration decreasing secreted Aβ1-40 to 50% of basal amount
Protocol: as §1, §2

## CC(C)CN(CCCN1CCN(CCCN2CCc3[nH]c4ccc(F)cc4c3C2)CC1)CC(C)C [Compound 3.1d, N,N-diisobutyl-3-(4-(3-(8-fluoro-1,3,4,5-tetrahydro-1H-pyrido[4,3-b]indol-2-yl)propyl)piperazin-1-yl)propylamine]
Secreted Aβ1-42
  IC50: 2.1 µM
Secreted Aβ1-40
  IC50: 1.2 µM
